Laboratory results published in patent US20130165520A1, “Hybrid Molecule Having Mixed Retinoic Acid Receptor Agonism and Histone Deacetylase Inhibitory Properties” (priority 2010, published 2013).

What was measured:
NCI/ADR-RES = conditions: 48 h
U251 [1] = assay: cells; conditions: Homo sapiens, U-251, 48 h
NCI-H23 = assay: cells; conditions: Homo sapiens, NCI-H23, 48 h
TK-10 = assay: cells; conditions: Homo sapiens, TK-10, 48 h
COLO205 = assay: cells; conditions: Homo sapiens, COLO 205, 48 h
PC-3 [2] = conditions: PC-3 (Prostate); 48 h
RPMI-8226 [3] = conditions: RPMI-8226 (Leukemia); 48 h
EKVX = EKVX (Non-Small cell lung cancer); 48 h
RPMI-8226 [4] = assay: cells; conditions: Homo sapiens, RPMI-8226, 48 h
UACC-62 = UACC-62 (Melanoma); 48 h
A498 [5] = conditions: A498 (Renal); 48 h
LOX IMVI = LOX IMVI (Melanoma); 48 h
786-0 = 786-0 (Renal); 48 h
PC-3 [6] = assay: cells; conditions: Homo sapiens, PC-3, 48 h
SF-268 = assay: cells; conditions: Homo sapiens, SF-268, 48 h
MDA-MB-435 = MDA-MB-435 (Melanoma); 48 h
K-562 = K-562 (Leukemia); 48 h
SR = SR (Leukemia); 48 h
HS578T = assay: cells; conditions: Homo sapiens, Hs-578T, 48 h
UO-31 = assay: cells; conditions: Homo sapiens, UO-31, 48 h
SK-OV-3 = assay: cells; conditions: Homo sapiens, SK-OV-3, 48 h
CAKI-1 = assay: cells; conditions: Homo sapiens, CAKI-1, 48 h
UACC-257 = UACC-257 (Melanoma); 48 h
BT-549 = BT-549 (Breast); 48 h
HCT-15 [7] = conditions: HCT-15 (Colon); 48 h
HOP-92 = HOP-92 (Non-Small cell lung cancer); 48 h
SNB-19 = assay: cells; conditions: Homo sapiens, SNB-19, 48 h
OVCAR-4 = conditions: 48 h
[8] = tested on: RAR target genes in MCF-7 cell line; assay: RT-qPCR analysis of RAR target genes; type: cell-based
From the text: The agonist activity of 3 through its effects on RAR target genes was subsequently analyzed (FIG. 3).

HT29 = HT29 (Colon); 48 h
U251 [9] = conditions: U251 (CNS); 48 h
[10] = tested on: normal human mammary epithelial cells (HMEC); assay: Cell growth measurement; type: cell-based
HCT-15 [11] = assay: cells; conditions: Homo sapiens, HCT-15, 48 h
A498 [12] = assay: cells; conditions: Homo sapiens, A498, 48 h
MCF7 = assay: cells; conditions: Homo sapiens, MCF7, 48 h
purified human HDAC3 = purified human HDAC3 (Homo sapiens, UniProt O15379); assay: Standard fluorescence HDAC assay; type: biochemical; conditions: purified human enzyme, read-out: IC50 against HDAC3
Sequence of purified human HDAC3 (O15379 whole entry): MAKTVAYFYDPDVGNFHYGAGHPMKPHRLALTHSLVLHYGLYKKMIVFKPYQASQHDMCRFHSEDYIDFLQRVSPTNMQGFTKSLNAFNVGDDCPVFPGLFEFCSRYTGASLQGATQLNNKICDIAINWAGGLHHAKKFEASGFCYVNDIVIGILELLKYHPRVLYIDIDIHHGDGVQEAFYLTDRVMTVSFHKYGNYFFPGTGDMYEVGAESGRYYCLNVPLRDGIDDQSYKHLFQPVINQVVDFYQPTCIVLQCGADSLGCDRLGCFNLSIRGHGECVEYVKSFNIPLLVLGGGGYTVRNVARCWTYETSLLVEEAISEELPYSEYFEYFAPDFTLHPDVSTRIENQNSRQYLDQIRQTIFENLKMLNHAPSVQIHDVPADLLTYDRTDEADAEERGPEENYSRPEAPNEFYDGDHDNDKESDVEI
Sequence of purified human HDAC3 (Q9Y618 395-489 partner limits assumed): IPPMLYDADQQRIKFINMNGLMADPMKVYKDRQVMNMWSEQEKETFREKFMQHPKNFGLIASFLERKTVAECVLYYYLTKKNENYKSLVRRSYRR

NCI-H322M = assay: cells; conditions: Homo sapiens, 48 h
SK-MEL-5 = assay: cells; conditions: Homo sapiens, SK-MEL-5, 48 h

CC1(C)CCC(C)(C)c2cc(-c3ccc4cc(C(=O)NO)ccc4c3)ccc21 [hybrid 3]
TGI (NCI/ADR-RES): 1.76 µM | GI50 (U251 [1]): 0.437 µM | CC50 (U251 [1]; read-out: LC50): 4.8 µM | GI50 (NCI-H23): 0.996 µM | CC50 (NCI-H23; read-out: LC50): 5.9 µM | GI50 (TK-10): 1.1 µM | CC50 (TK-10; read-out: LC50): 25 µM | GI50 (COLO205): 0.797 µM | CC50 (COLO205; read-out: LC50): 6.02 µM | TGI (PC-3 [2]): 4.25 µM | TGI (RPMI-8226 [3]): 4.39 µM | TGI (EKVX): 3.43 µM | GI50 (RPMI-8226 [4]): 0.689 µM | CC50 (RPMI-8226 [4]; read-out: LC50): > 100 µM | TGI (UACC-62): 1.86 µM | TGI (A498 [5]): 3.8 µM | TGI (LOX IMVI): 1.36 µM | TGI (786-0): 2.37 µM | GI50 (PC-3 [6]): 1.14 µM | CC50 (PC-3 [6]; read-out: LC50): 21.5 µM | GI50 (SF-268): 0.533 µM | CC50 (SF-268; read-out: LC50): 5.05 µM | TGI (MDA-MB-435): 2.54 µM | TGI (K-562): 1.46 µM | TGI (SR): 1.2 µM | GI50 (HS578T): 3.02 µM | CC50 (HS578T; read-out: LC50): 64.8 µM | GI50 (UO-31): 0.404 µM | CC50 (UO-31; read-out: LC50): 4.53 µM | GI50 (SK-OV-3): 1.54 µM | CC50 (SK-OV-3; read-out: LC50): 34.8 µM | GI50 (CAKI-1): 0.302 µM | CC50 (CAKI-1; read-out: LC50): 4.31 µM | TGI (UACC-257): 7.34 µM | TGI (BT-549): 4.81 µM | TGI (HCT-15 [7]): 2.03 µM | TGI (HOP-92): 6.35 µM | GI50 (SNB-19): 1.09 µM | CC50 (SNB-19; read-out: LC50): 5.09 µM | TGI (OVCAR-4): 5.82 µM | induction of RAR target genes (RT-qPCR) [8]: clear induction of RARB2 and DHRS3 | TGI (HT29): 2.34 µM | TGI (U251 [9]): 1.69 µM | effect on growth of normal cells [10]: only minimal effects | GI50 (HCT-15 [11]): 0.381 µM | CC50 (HCT-15 [11]; read-out: LC50): 9.38 µM | GI50 (A498 [12]): 1.66 µM | CC50 (A498 [12]; read-out: LC50): 8.71 µM | GI50 (MCF7): 0.47 µM | CC50 (MCF7; read-out: LC50): 4.66 µM | IC50 (purified human HDAC3): 5 µM | GI50 (NCI-H322M): 0.446 µM | CC50 (NCI-H322M; read-out: LC50): 26.2 µM | GI50 (SK-MEL-5): 0.977 µM | CC50 (SK-MEL-5; read-out: LC50): 5.37 µM
